According to patent US20060148878A1, “Pseudopolymorphic forms of carvedilol” (priority 2001, published 2006):

What was measured:
[1] = resorption after peroral administration of rapid release carvedilol formulations; assay type: in vivo; conditions: e.g. the commercial formulation
Text: In the case of the peroral administration of rapid release carvedilol formulations, e.g. the commercial formulation, resorption quotas of up to 80% are achieved, with a considerable part of the resorbed carvedilol being very rapidly metabolized.

[2] = investigations into the gastrointestinal resorption of carvedilol; assay type: in vivo; conditions: compared with resorption in the stomach
[3] = dissolution in molten polyethylene glycol 6,000; assay type: physicochemical; conditions: polyethylene glycol 6,000 melted at about 70° C.; carvedilol form I, II or IV dissolved
Procedure: Thus, carvedilol form I, II or IV can be dissolved in polyethylene glycol 6,000 which is melted at about 70° C. […] Further, the compositions in accordance with the invention can contain highly dispersed silicon dioxide as an anti-caking agent.

[4] = pH 1
[5] = active substance resorption / bioavailability of compositions containing carvedilol form IV; assay type: in vivo; conditions: compositions with selected adjuvants, compared with formulations which contain carvedilol forms I or II

| resorption quota [1] | concentration of carvedilol obtained in polyethylene glycol 6,000 [3] | solubility in aqueous media [4] | solubility in the strongly acidic region [4] | bioavailability [5] | SMILES | resorption in the ileum and colon [2] |
| --- | --- | --- | --- | --- | --- | --- |
| up to 80% | up to 500 mg/ml | 1 mg and 100 | very low solubility | – | COc1ccccc1OCCNCC(O)COc1cccc2[nH]c3ccccc3c12 (racemic) [carvedilol, (±)1-(4-carbazolyloxy)-3-[2-(2-methoxyphenoxy)ethylamino]-2-propanole] | only a fraction of the resorption in the stomach |
| – | – | – | – | improved bioavailability | COc1ccccc1OCCNCC(O)COc1cccc2[nH]c3ccccc3c12 (racemic) [carvedilol form IV, (±)1-(4-carbazolyloxy)-3-[2-(2-methoxyphenoxy)ethylamino]-2-propanole] | – |
